Data: US10662193B2, “Carbazole and carboline compounds for use in the diagnosis, treatment, alleviation or prevention of disorders associated with amyloid or amyloid-like proteins” (AC IMMUNE SA, priority 2014, dated 2020)

Columns and labels:
AD brain-enriched PHF = AD brain-enriched PHF (Homo sapiens, UniProt P10636); test: Assay 2 (filter trap): [3H]RefA radio-binding competition assay and Ki on PHF; conditions: [^3H]RefA 10 nM; for inhibition at 2.5 µM: compound 2.5 μM, no Ki determined; for Ki: PHF diluted 1/80, compound 0.12 nM to 50 μM
Procedure: Displacement of [^3H]RefA by Compounds of this Invention
50 g of frontal lobe tissue from post-mortem brain of an Alzheimer's disease (AD) patient were obtained from the London Tissue Bank. The patient was a […] and died […]. The brain sample was collected 5 hours post-mortem and characterized for Braak disease stage (Braak, H.; Braak, E. Acta Neuropathol., 1991, 82, 239-259) as stage VI. For the enrichment of PHF's, around 15 g of the AD human brain was thawed on ice and homogenized with 50 ml of homogenization buffer [0.75 M NaCl in RAB buffer (100 mM 2-(N-morpholino) ethanesulfonic acid (MES), 1 mM EGTA, 0.5 mM MgSO4, 2 mM DTT, pH 6.8) supplemented with protease inhibitors (Complete; Roche 11697498001) in a glass Dounce homogenizer. The homogenate was then incubated at 4° C. for 20 min to let any residual microtubules depolymerize, before the homogenate was transferred into polycarbonate centrifuge bottles (16×76 mm; Beckman 355603) and centrifuged at 11,000 g (12,700 RPM) in an ultracentrifuge (Beckman, XL100K) for 20 min at 4° C. using the pre-cooled 70.1 rotor (Beckman, 342184). Pellets were kept on ice. Supernatants were pooled into polycarbonate bottles and centrifuged again at 100,000 g (38,000 RPM) for 1 h at 4° C. in the 70.1 Ti rotor to isolate PHF-rich pellets, whereas soluble tau remained in the supernatants. The pellets from the first and second centrifugations were re-suspended in 120 mL of extraction buffer [10 mM Tris-HCl pH 7.4, 10% sucrose, 0.85 M NaCl, 1% protease inhibitor (Calbiochem 539131), 1 mM EGTA, 1% phosphatase inhibitor (Sigma P5726 and P0044)]. The solution was then transferred into polycarbonate centrifuge bottles (16×76 mm; Beckman 355603) and centrifuged at 15,000 g (14,800 RPM) in an ultracentrifuge (Beckman, XL100K) for 20 min at 4° C. using the 70.1 Ti rotor. In the presence of 10% sucrose and at low speed centrifugation, most PHF remained in the supernatant whereas intact or fragmented NFTs and larger PHF aggregates were pelleted. The pellets were discarded. 20% Sarkosyl (Sigma L7414-10ML) was added to the supernatants to a final concentration of 1% and stirred at room temperature for 1 h. This solution was then centrifuged into polycarbonate bottles at 100,000 g (38,000 RPM) for 1 h at 4° C. in the 70.1 Ti rotor, and the pellets containing PHF-rich material were re-suspended in a total final volume of 1.5 mL of PBS, aliquoted and stored at −80° C.
[^3H]RefA Radio-Binding Competition Assay
AD brain-enriched PHF diluted 1/80 were incubated in the presence of [^3H]RefA at 10 nM and the example compounds of this invention at 2.5 μM (250× excess), for 45 minutes at 37° C. Samples were then analyzed by on GF/B filter plates as described above (in the section “[^3H]RefA radio-binding assay and determination of the dissociation constant (Kd)). Non-specific signal was determined again with an excess of un-labeled RefA and specific binding calculated by subtracting the non-specific signal from the total signal. Competition was calculated as percent, where 0% was defined as the specific binding in the presence of vehicle (2.8% DMSO in PBS) and 100% as the values obtained in the presence of excess cold RefA. Similar assays were performed to determine the competition of the cold compounds on [^3H]RefA on in vitro aggregated recombinant human tau or Abeta1-42 For both recombinant proteins, 20 μg/mL of aggregates were incubated with 10 nM of [^3H]RefA for recombinant human tau or 80 nM of [^3H]RefA for recombinant human Abeta1-42.
Determination of the Binding Affinity (Ki)
Samples were then analyzed on GF/B filter plates as described above and Ki values calculated using Prism V5 (GraphPad).

[1] = test system: Aβ plaques on AD brain section; test: Assay 1: displacement of Compound B on human AD brain sections (fluorescence); type: binding
Procedure: Direct Binding of Compounds of this Invention to Human Alzheimer's Disease Brain Sections and/or Displacement of RefA and Compound B Frozen sections with a thickness of […] from the amygdala of donors diagnosed with Braak stage V-VI Alzheimer's Disease (Braak, H.; Braak, E. Acta Neuropathol., 1991, 82, 239-259), were purchased from a commercial provider (Tissue Solutions) and kept at -80° C. until use. Displacement of RefA and Compound B Brain sections were mainly treated as described above. Test compounds were, however, incubated on the section at 250 μM in 50% ethanol for 20 min at room temperature, and then directly incubated with the fluorescent reference compounds RefA and Compound B, each at 1 μM in 50% ethanol for 20 min at room temperature. RefA and Compound B stainings were visualized using the 470 nm and 365 nm excitation filters, respectively. Images were acquired, and tangles and plaques quantified using the NIS-Element software. Only those compounds not directly staining tangles or plaques at the same wavelengths as RefA and Compound B were tested in the displacement assay. Structure of Compound B (prepared by a similar procedure described for […] in WO2010/011964): […]

[2] = test system: tau tangles/Aβ plaques on AD brain sections; test: Assay 1: direct staining of human Alzheimer's disease brain sections (fluorescence); type: binding; parameters: key to Direct staining of tau tangles/Aβ plaques on AD brain sections at 100 μM / Direct staining of tau tangles on AD brain sections at 100 μM / Direct staining of Aβ plaques on AD brain sections at 100 μM / Direct staining of tau tangles on AD brain sections (footnote a: at 250 μM): − (No); +++ (strong); ++ (good); + (weak); conditions: 100 μM compound; for Direct staining of tau tangles/Aβ plaques on AD brain sections at 100 μM: human AD brain sections, fluorescence, cell does not say tangles or plaques
Procedure: Assay 1 (Fluorescence Based Assay):
(§1) Direct Binding of Compounds of this Invention to Human Alzheimer's Disease Brain Sections and/or Displacement of RefA and Compound B
(§2) Frozen sections with a thickness of […] from the amygdala of donors diagnosed with Braak stage V-VI Alzheimer's Disease (Braak, H.; Braak, E. Acta Neuropathol., 1991, 82, 239-259), were purchased from a commercial provider (Tissue Solutions) and kept at −80° C. until use.
Direct Staining of Human Alzheimer's Disease Brain Sections
Brain sections were encircled with pap pen liquid blocker to reduce the volume of solution for the different incubations. Sections were fixed for 15 min at 4° C. with 4% paraformaldehyde and washed three times 5 minutes with PBS at room temperature. […] To reduce the auto-fluorescence of the tissue, the sections were incubated in a solution of 0.1% Sudan Black (Sigma 199664) in 70% ethanol for 15 min at room temperature in the dark, washed four times for 5 minutes with PBS, and mounted using ProLong Gold Antifade reagent (Invitrogen P36930). Sections were then analyzed on the Nikon Eclipse Ti microscope to detect staining and imaged using Nikon DS-Fi2 camera and NIS-Element AR4.13.1 software.

[3] = test system: tau tangles on AD brain section; test: Assay 1: displacement of RefA on human AD brain sections (fluorescence); type: binding; conditions: for Selectivity (tau/Abeta): ratio of competition on tau tangles to competition on Aβ plaques
Procedure: as §1, §2
Displacement of RefA and Compound B
Brain sections were mainly treated as described above. Test compounds were, however, incubated on the section at 250 μM in 50% ethanol for 20 min at room temperature, and then directly incubated with the fluorescent reference compounds RefA and Compound B, each at 1 μM in 50% ethanol for 20 min at room temperature. RefA and Compound B stainings were visualized using the 470 nm and 365 nm excitation filters, respectively. Images were acquired, and tangles and plaques quantified using the NIS-Element software. Only those compounds not directly staining tangles or plaques at the same wavelengths as RefA and Compound B were tested in the displacement assay.
Structure of RefA (Tago et al., J. Label. Compd. Radiopharm. 2013, DOI: 10.1002/jlcr.3133)

AD brain-enriched PHF, sequence (P10636 623-708 limits assumed): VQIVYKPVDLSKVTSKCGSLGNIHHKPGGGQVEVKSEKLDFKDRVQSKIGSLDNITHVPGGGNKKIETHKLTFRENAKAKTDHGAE

Structure (SMILES) | inhibition at 2.5 µM (AD brain-enriched PHF) [%] | Direct staining of tau tangles on AD brain sections at 100 μM [2] | Direct staining of tau tangles/Aβ plaques on AD brain sections at 100 μM [2] | also measured
Cn1c2ccncc2c2ccc(Nc3c(F)cccc3N3CCOCC3)nc21 [Example 15] | < 50 |  |  | 
Cn1c2ccncc2c2ccc(Nc3cccc(OCCOCCOCCF)c3)nc21 [Example 96] |  | ++ (tangles) |  | Competition on AD brain section Aβ plaques (1 μM Compound B vs 250 μM compound) [1]: 18%
Cn1c2ccncc2c2ccc(N3CCC(CCOCCF)CC3)nc21 [Example 155] |  | + (tangles) + (plaques) |  | Competition on AD brain section Aβ plaques (1 μM Compound B vs 250 μM compound) [1]: 15%; Competition on AD brain section tau tangles (1 μM RefA vs. 250 μM compound) [3]: 90%; Selectivity (tau/Abeta) [3]: ~6-fold; Direct staining of Aβ plaques on AD brain sections at 100 μM ([2]; plaques): + (tangles) + (plaques)
Cn1c2ccncc2c2ccc(Nc3cccc(OCCF)n3)nc21 [Example 44] |  | ++ (tangles) |  | Competition on AD brain section Aβ plaques (1 μM Compound B vs 250 μM compound) [1]: −21%; Competition on AD brain section tau tangles (1 μM RefA vs. 250 μM compound) [3]: 88%; Selectivity (tau/Abeta) [3]: >88 fold
Cn1c2ccncc2c2ccc(Nc3ccc(F)c(C#N)c3)nc21 [Example 6] | < 50 | +++ (tangles) |  | 
CN1CCc2c(c3ccc(Nc4ccc5c(c4)OCO5)nc3n2C)C1=O [Example 170] | < 50 |  | − | Competition on AD brain section tau tangles (1 μM RefA vs. 250 μM compound) [3]: 20%
CN1CCc2c(c3ccc(Nc4ccc5ncn(C)c5c4)nc3n2C)C1=O [Example 172] | < 50 |  | − | Competition on AD brain section tau tangles (1 μM RefA vs. 250 μM compound) [3]: 16%
Cn1c2ccncc2c2ccc(Nc3cccc(OC(F)(F)F)c3)nc21 [Example 13] |  |  |  | Ki (AD brain-enriched PHF): 169 nM
Cn1c2ccncc2c2ccc(Nc3cncc(OCCOCCF)c3)nc21 [Example 65] |  | ++ (tangles) |  | Competition on AD brain section Aβ plaques (1 μM Compound B vs 250 μM compound) [1]: 35%
Cn1c2c(c3ccc(Nc4ccc(F)c(F)c4)nc31)C(=O)NCC2 [Example 174] | < 50 |  | − | 
Cn1c2ccncc2c2ccc(Nc3ccc(OC(F)F)nc3)nc21 [Example 11] |  | ++ (tangles) |  | Ki (AD brain-enriched PHF): 188 nM
COc1cc(Nc2ccc3c4c(n(C)c3n2)CCN(C)C4=O)ccc1C [Example 171] | < 50 |  | − | 
Cn1c2ccncc2c2ccc(Nc3cccc(F)c3N3CCOCC3)nc21 [Example 14] |  |  |  | Ki (AD brain-enriched PHF): 371 nM
Cn1c2ccncc2c2ccc(Nc3cc(N4CCOCC4)ccc3F)nc21 [Example 10] | < 50 |  | − | 
Cn1c2ccncc2c2ccc(Nc3cccc(OCCOCCF)c3)nc21 [Example 95] |  | ++ (tangles) |  | Competition on AD brain section Aβ plaques (1 μM Compound B vs 250 μM compound) [1]: 59%
Cn1c2ccncc2c2ccc(Nc3ccc(C#N)c(F)c3)nc21 [Example 17] | < 50 | +++ (tangles) |  | 
Cn1c2c(c3ccc(Nc4ccc(F)c(F)c4)nc31)C(=O)N(CCCN)CC2 [212 Step F] | < 50 |  |  | 
Cn1c2ccncc2c2ccc(Nc3cc(F)ccc3N3CCOCC3)nc21 [Example 16] | < 50 |  | − | 
